Data taken from US4788202A, “Sulphonamide derivatives as α2 -adrenoceptor antagonists” (John Wyeth & Brother Limited, priority 1985, dated 1988).

What was measured:
α2 -adrenoceptor = molecular target: T1, α2 -adrenoceptor (Rattus norvegicus, UniProt P22909); assay: α2-adrenoceptor antagonistic activity on the rat field stimulated vas deferens preparation (modified method of Drew)
T1 construct: rat field stimulated vas deferens preparation; from tissue; host or cells: rat vas deferens, field stimulated
T1 sequence (P22909 1-465): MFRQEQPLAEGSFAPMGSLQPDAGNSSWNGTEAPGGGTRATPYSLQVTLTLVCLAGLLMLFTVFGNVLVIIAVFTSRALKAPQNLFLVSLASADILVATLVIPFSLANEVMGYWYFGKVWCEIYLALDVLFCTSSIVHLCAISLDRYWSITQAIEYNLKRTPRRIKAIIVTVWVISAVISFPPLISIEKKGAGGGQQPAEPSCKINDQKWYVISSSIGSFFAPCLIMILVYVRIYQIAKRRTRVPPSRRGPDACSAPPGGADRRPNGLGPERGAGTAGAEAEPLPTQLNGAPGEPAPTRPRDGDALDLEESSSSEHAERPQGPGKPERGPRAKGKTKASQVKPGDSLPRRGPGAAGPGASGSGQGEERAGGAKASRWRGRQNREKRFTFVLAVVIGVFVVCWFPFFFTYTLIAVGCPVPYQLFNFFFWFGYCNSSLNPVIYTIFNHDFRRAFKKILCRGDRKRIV
From the text: (§1) The compounds of the invention may be tested for α2 -adrenoceptor antagonistic activity on the rat field stimulated vas deferens preparation using a modification of the method of Drew, Eur. J. Pharmac., 1977,42, 123-130 as described in our GB patent No. 2136804A Specification and for the α1 -antagonist activity by the method based on that of Gillespie Br. J. Pharmac 1972, 45 404-416, as also described in GB patent specification No. 2136804A.

α1 -adrenoceptor = molecular target: T2, α1 -adrenoceptor (Rattus norvegicus, UniProt P43140); assay: α1-adrenoceptor antagonist activity by a method based on that of Gillespie; conditions: as described in GB 2136804A, read-out: pA2 for α1 -adrenoceptor antagonistic activity (converted)
T2 construct: method based on that of Gillespie Br. J. Pharmac 1972, 45 404-416; from tissue
T2 sequence (P43140 1-466): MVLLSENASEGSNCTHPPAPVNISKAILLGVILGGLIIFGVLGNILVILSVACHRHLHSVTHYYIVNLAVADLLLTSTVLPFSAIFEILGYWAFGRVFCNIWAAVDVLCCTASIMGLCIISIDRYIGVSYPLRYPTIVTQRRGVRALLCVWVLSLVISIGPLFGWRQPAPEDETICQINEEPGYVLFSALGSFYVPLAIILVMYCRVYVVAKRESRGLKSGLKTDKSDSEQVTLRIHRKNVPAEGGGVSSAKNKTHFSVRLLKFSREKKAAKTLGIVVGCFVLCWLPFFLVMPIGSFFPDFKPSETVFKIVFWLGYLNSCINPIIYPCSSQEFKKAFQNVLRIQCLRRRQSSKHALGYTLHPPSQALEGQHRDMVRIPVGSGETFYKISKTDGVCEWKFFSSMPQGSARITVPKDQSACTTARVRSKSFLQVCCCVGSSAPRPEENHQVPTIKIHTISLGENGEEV
From the text: as §1

Kb (α2 -adrenoceptor; rat field stimulated vas deferens preparation, read-out: pA2 for α2 -adrenoceptor antagonist activity (converted)): 8.51 nM | α2 /α1 selectivity [antilog of (α2 pA2 - α1 pA1)] (α2 -adrenoceptor; ratio from α2 and α1 pA2 values): 32 | Kb (α1 -adrenoceptor): 275 nM
SMILES: CS(=O)(=O)NCCN([C@@H]1CCN2CCc3c(oc4ccccc34)[C@@H]2C1)S(C)(=O)=O (relative stereo) [Example 2, N-[(2β,12bα)-1,3,4,6,7,12b-Hexahydro-2H-benzo[b]furo [2,3-a]quinolizin-2-yl]-N-(2-methanesulphonamidoethyl) methanesulphonamide]
